{
  "source": "patent US3984548A",
  "about": "“Substituted pyrido[1,2,3,-de]-1,4-benzoxazines as bactericides” (Riker Laboratories, Inc., priority 1974, dated 1976)",
  "format_in_all_cases": "cell-based",
  "parameters_in_all_cases": "key: +: active; -: inactive",
  "settings_in_all_cases": "agar plates, 1 to 100 milligrams/liter",
  "key": {"Herellea vaginicola": {"test_system": "Herellea vaginicola", "assay": "standard plate dilution method, Herellea vaginicola", "method": "(§1) The culture medium employed permits susceptibility testing of fastidious microorganisms towards antibiotics, sulfonamides and other chemotherapeutic agents. Tryptone soy agar (oxoid) of the following composition is the culture medium. In the test procedure, the amount of a compound required to give complete inhibition or no inhibition of the microbial growth on the agar plates was determined. The compound selected for evaluation is added to the agar medium to give concentrations of one, ten and one hundred milligrams per liter. A series of plates with these concentrations is prepared. Plates containing agar alone are included as controls. Ten percent horse serum is added to one series of such plates. Aliquots of broth culture of each of nine species of microorganisms are innoculated onto the agar plates containing the various compound concentrations and onto the control plates. The plates are incubated at 37° C. in a 10 percent carbon dioxide atmosphere for 18 to 25 hours. The microbial growth on each plate is read visually, and minimal inhibitory concentrations are recorded."}, "Bacillus Subtilus": {"test_system": "Bacillus Subtilus", "assay": "standard plate dilution method, Bacillus subtilus", "method": "as §1"}, "Staphylococcus aureus": {"test_system": "Staphylococcus aureus", "assay": "standard plate dilution method, Staphylococcus aureus", "method": "as §1"}, "Streptococcus Sp": {"test_system": "Streptococcus Sp", "assay": "standard plate dilution method, Streptococcus sp.", "method": "as §1"}, "Mima polymorpha": {"test_system": "Mima polymorpha", "assay": "standard plate dilution method, Mima polymorpha", "method": "as §1"}, "Escherichia coli": {"test_system": "Escherichia coli", "assay": "standard plate dilution method, Escherichia coli", "method": "as §1"}, "Pseudmonas aeruginosa": {"test_system": "Pseudmonas aeruginosa", "assay": "standard plate dilution method, Pseudomonas aeruginosa", "method": "as §1"}},
  "data": [
    {"smiles": "Cc1ccc2c3c1c(=O)c(C(=O)O)cn3C(C)CO2", "note": "(centres unmarked) [Example 26, 8-methyl-2,3-dihydro-3-methyl-7-oxo-7H-pyrido[1,2,3-de]-1,4-benzoxazine-6-carboxylic acid]", "values": [
      {"measurement": "Microorganism HV (growth inhibition)", "setting": "Herellea vaginicola", "value": "+"},
      {"measurement": "Microorganism BS (growth inhibition)", "setting": "Bacillus Subtilus", "value": "+"},
      {"measurement": "Microorganism SA (growth inhibition)", "setting": "Staphylococcus aureus", "value": "+"},
      {"measurement": "Microorganism SS (growth inhibition)", "setting": "Streptococcus Sp", "value": "+"},
      {"measurement": "Microorganism MP (growth inhibition)", "setting": "Mima polymorpha", "value": "-"},
      {"measurement": "Microorganism EC (growth inhibition)", "setting": "Escherichia coli", "value": "+"},
      {"measurement": "Microorganism PA (growth inhibition)", "setting": "Pseudmonas aeruginosa", "value": "-"}
    ]},
    {"smiles": "CCOC(=O)c1cn2c3c(c(Cl)cc(C)c3c1=O)OCC2C", "note": "(centres unmarked) [Example 37 (ester)]", "values": [
      {"measurement": "Microorganism HV (growth inhibition)", "setting": "Herellea vaginicola", "value": "-"},
      {"measurement": "Microorganism BS (growth inhibition)", "setting": "Bacillus Subtilus", "value": "+"},
      {"measurement": "Microorganism SA (growth inhibition)", "setting": "Staphylococcus aureus", "value": "-"},
      {"measurement": "Microorganism SS (growth inhibition)", "setting": "Streptococcus Sp", "value": "-"},
      {"measurement": "Microorganism MP (growth inhibition)", "setting": "Mima polymorpha", "value": "-"},
      {"measurement": "Microorganism EC (growth inhibition)", "setting": "Escherichia coli", "value": "-"},
      {"measurement": "Microorganism PA (growth inhibition)", "setting": "Pseudmonas aeruginosa", "value": "-"}
    ]},
    {"smiles": "Cc1ccc2c(=O)c(C(=O)O)cn3c2c1OCC3C", "note": "(centres unmarked) [Example 39 (acid)]", "values": [
      {"measurement": "Microorganism HV (growth inhibition)", "setting": "Herellea vaginicola", "value": "+"},
      {"measurement": "Microorganism BS (growth inhibition)", "setting": "Bacillus Subtilus", "value": "+"},
      {"measurement": "Microorganism SA (growth inhibition)", "setting": "Staphylococcus aureus", "value": "-"},
      {"measurement": "Microorganism SS (growth inhibition)", "setting": "Streptococcus Sp", "value": "+"},
      {"measurement": "Microorganism MP (growth inhibition)", "setting": "Mima polymorpha", "value": "+"},
      {"measurement": "Microorganism EC (growth inhibition)", "setting": "Escherichia coli", "value": "+"},
      {"measurement": "Microorganism PA (growth inhibition)", "setting": "Pseudmonas aeruginosa", "value": "+"}
    ]},
    {"smiles": "CCOC(=O)c1cn2c3c(c(C)cc(C)c3c1=O)OCC2C", "note": "(centres unmarked) [Example 42 (ester)]", "values": [
      {"measurement": "Microorganism HV (growth inhibition)", "setting": "Herellea vaginicola", "value": "-"},
      {"measurement": "Microorganism BS (growth inhibition)", "setting": "Bacillus Subtilus", "value": "+"},
      {"measurement": "Microorganism SA (growth inhibition)", "setting": "Staphylococcus aureus", "value": "-"},
      {"measurement": "Microorganism SS (growth inhibition)", "setting": "Streptococcus Sp", "value": "-"},
      {"measurement": "Microorganism MP (growth inhibition)", "setting": "Mima polymorpha", "value": "-"},
      {"measurement": "Microorganism EC (growth inhibition)", "setting": "Escherichia coli", "value": "-"},
      {"measurement": "Microorganism PA (growth inhibition)", "setting": "Pseudmonas aeruginosa", "value": "-"}
    ]},
    {"smiles": "Cc1c(Cl)cc2c(=O)c(C(=O)O)cn3c2c1OCC3C", "note": "(centres unmarked) [Example 34 (acid)]", "values": [
      {"measurement": "Microorganism HV (growth inhibition)", "setting": "Herellea vaginicola", "value": "+"},
      {"measurement": "Microorganism BS (growth inhibition)", "setting": "Bacillus Subtilus", "value": "+"},
      {"measurement": "Microorganism SA (growth inhibition)", "setting": "Staphylococcus aureus", "value": "+"},
      {"measurement": "Microorganism SS (growth inhibition)", "setting": "Streptococcus Sp", "value": "+"},
      {"measurement": "Microorganism MP (growth inhibition)", "setting": "Mima polymorpha", "value": "+"},
      {"measurement": "Microorganism EC (growth inhibition)", "setting": "Escherichia coli", "value": "+"},
      {"measurement": "Microorganism PA (growth inhibition)", "setting": "Pseudmonas aeruginosa", "value": "+"}
    ]},
    {"smiles": "CCOC(=O)c1cn2c3c(cc(C)cc3c1=O)OCC2C", "note": "(centres unmarked) [Example 1, ethyl 2,3-dihydro-3,9-dimethyl-7-oxo-7H-pyrido[1,2,3-de]-1,4-benzoxazine-6-carboxylate]", "values": [
      {"measurement": "Microorganism HV (growth inhibition)", "setting": "Herellea vaginicola", "value": "+"},
      {"measurement": "Microorganism BS (growth inhibition)", "setting": "Bacillus Subtilus", "value": "+"},
      {"measurement": "Microorganism SA (growth inhibition)", "setting": "Staphylococcus aureus", "value": "+"},
      {"measurement": "Microorganism SS (growth inhibition)", "setting": "Streptococcus Sp", "value": "-"},
      {"measurement": "Microorganism MP (growth inhibition)", "setting": "Mima polymorpha", "value": "-"},
      {"measurement": "Microorganism EC (growth inhibition)", "setting": "Escherichia coli", "value": "+"},
      {"measurement": "Microorganism PA (growth inhibition)", "setting": "Pseudmonas aeruginosa", "value": "-"}
    ]},
    {"smiles": "CCOC(=O)c1cn2c3c(c(C)c(Cl)cc3c1=O)OCC2C", "note": "(centres unmarked) [Example 34 (ester)]", "values": [
      {"measurement": "Microorganism HV (growth inhibition)", "setting": "Herellea vaginicola", "value": "+"},
      {"measurement": "Microorganism BS (growth inhibition)", "setting": "Bacillus Subtilus", "value": "+"},
      {"measurement": "Microorganism SA (growth inhibition)", "setting": "Staphylococcus aureus", "value": "+"},
      {"measurement": "Microorganism SS (growth inhibition)", "setting": "Streptococcus Sp", "value": "+"},
      {"measurement": "Microorganism MP (growth inhibition)", "setting": "Mima polymorpha", "value": "+"},
      {"measurement": "Microorganism EC (growth inhibition)", "setting": "Escherichia coli", "value": "+"},
      {"measurement": "Microorganism PA (growth inhibition)", "setting": "Pseudmonas aeruginosa", "value": "+"}
    ]},
    {"smiles": "CC1COc2c(F)ccc3c(=O)c(C(=O)O)cn1c23", "note": "(centres unmarked) [Example 21, 2,3-dihydro-10-fluoro-3-methyl-7-oxo-7H-pyrido[1,2,3-de]-1,4-benzoxazine-6-carboxylic acid]", "values": [
      {"measurement": "Microorganism HV (growth inhibition)", "setting": "Herellea vaginicola", "value": "+"},
      {"measurement": "Microorganism BS (growth inhibition)", "setting": "Bacillus Subtilus", "value": "+"},
      {"measurement": "Microorganism SA (growth inhibition)", "setting": "Staphylococcus aureus", "value": "+"},
      {"measurement": "Microorganism SS (growth inhibition)", "setting": "Streptococcus Sp", "value": "+"},
      {"measurement": "Microorganism MP (growth inhibition)", "setting": "Mima polymorpha", "value": "-"},
      {"measurement": "Microorganism EC (growth inhibition)", "setting": "Escherichia coli", "value": "+"},
      {"measurement": "Microorganism PA (growth inhibition)", "setting": "Pseudmonas aeruginosa", "value": "-"}
    ]}
  ]
}
